According to patent US20100310535A1, “METHOD FOR EXPANDING HEMATOPOIETIC STEM CELLS USING HETEROCYCLIC COMPOUND” (Nissan Chemical Industries, Ltd., priority 2007, published 2010):

Test system: human cord blood-derived CD34^+ cells
Experiment: Expansion of CD34^+ cells from human cord blood-derived CD34^+ cells (7-day liquid culture with SCF, flow cytometry)
Format: cell-based
Settings: 168 h, based on the number of CD34^+ cells in the absence of compound, 100 ng/mL SCF, 7 days, read-out: Expansion efficiency; for fold induction at 1 µg/mL: 1 μg/mL compound; for fold induction at 0.3 µg/mL: 0.3 μg/mL compound
Method: Commercially available human cord blood-derived CD34^+ cells (Cambrex Bio Science Walkersville) were plated on a 12-well plate (Corning) (from 5000 to 10000 cells/1 mL/well). As the culture medium, StemSpan SFEM (Stemcell Technologies) containing 100 ng/mL SCF (R&D Systems) was used, and Compounds Nos. 1 to 16 dissolved in dimethyl sulfoxide were added in an amount of 0.1% (v/v) to a final concentration of 0.3 or 1 μg/mL.
After the cells were incubated in liquid culture at 37° C. for 7 days in a CO2 incubator (in an atmosphere containing 5 vol % CO2), the total number of cells was counted by trypan blue assay (Invitrogen) or Flow-Count™ fluorosphere assay (Beckman Coulter). The number of CD34^+ cells was calculated as follows. After the incubation, the cells in the liquid culture was stained with a CD34 antibody (PE, Becton, Dickinson and Company). The stained cells were analyzed with a flow cytometer (Beckman Coulter) to determined the proportion of CD34^+ cells, which was multiplied by the total number of cells to calculate the number of CD34^+ cells.
The expansion efficiencies in the presence of 0.3 μg/mL or 1 μg/mL of compounds based on the number of CD34^+ cells in the absence of them are shown in Table 3 on a scale of A for expansion efficiencies of 3 or greater, B for expansion efficiencies of at least 2 and less than 3, and C for expansion efficiencies of at least 1.5 and less than 2.

Row | Compound | fold induction at 1 µg/mL | fold induction at 0.3 µg/mL
1 | C/C(=N\NC(=S)N1CCC(C(=O)O)CC1)c1csc(-c2ccc(Cl)c(Cl)c2)c1O [compound 1] | 2 to 3 | –
2 | C/C(=N\NC(=S)N1CCC(C(=O)O)CC1)c1csc(-c2ccc(C(F)(F)F)cc2)c1O [compound 2] | 2 to 3 | –
3 | C/C(=N\NC(=S)N1CCC(C(=O)O)CC1)c1nn(C)c(-c2ccc(C(F)(F)F)cc2)c1O [compound 3] | 1.5 to 2 | –
4 | COC(=O)C1CCN(C(=S)N/N=C(\C)c2nn(C)c(-c3ccc(Cl)c(Cl)c3)c2O)CC1 [compound 4] | 1.5 to 2 | –
5 | COC(=O)C1CCN(C(=S)N/N=C(\C)c2csc(-c3ccc(OC)cc3)c2O)CC1 [compound 5] | 1.5 to 2 | –
6 | COc1ccc(-c2scc(/C(C)=N/NC(=S)N3CCC(C(=O)O)CC3)c2O)cc1 [compound 6] | ≥ 3 | –
7 | C/C(=N\NC(=S)N1CCC(C(=O)O)CC1)c1csc(-c2ccc(C(C)(C)C)cc2)c1O [compound 7] | ≥ 3 | –
8 | C/C(=N\NC(=S)N1CCC(C(=O)O)CC1)c1csc(-c2ccc(Br)cc2)c1O [compound 8] | ≥ 3 | –
9 | CCCNC(=O)C1CCN(C(=S)N/N=C(\C)c2nn(C)c(-c3ccc(C(F)(F)F)cc3)c2O)CC1 [compound 9] | 2 to 3 | –
10 | C/C(=N\NC(=S)N1CCC(C(=O)O)CC1)c1csc(-c2ccc(C)c(C)c2)c1O [compound 10] | ≥ 3 | –
11 | C/C(=N\NC(=S)N1CCC(C(=O)O)CC1)c1csc(-c2ccc(OC(F)(F)F)cc2)c1O [compound 11] | ≥ 3 | –
12 | C/C(=N\NC(=S)N1CCC(C(=O)O)CC1)c1csc(-c2cccc(Cl)c2)c1O [compound 12] | 2 to 3 | –
13 | C/C(=N\NC(=S)N1CCC(C(=O)O)CC1)c1csc(-c2ccc(Cl)cc2)c1O [compound 13] | ≥ 3 | –
14 | C/C(=N\NC(=S)N1CCC(C(=O)NCc2ccncc2)CC1)c1csc(-c2ccc(Br)cc2)c1O [compound 14] | – | 1.5 to 2
15 | C/C(=N\NC(=S)N1CCC(C(=O)NCC(=O)O)CC1)c1csc(-c2ccc(Br)cc2)c1O [compound 16] | – | 2 to 3
